{"source": "patent US11266712B2", "about": "“Antimicrobial peptides and methods of using the same” (Riptide Bioscience, Inc., priority 2018, dated 2022)", "key": {"[1]": {"test_system": "S. aureus 29213", "assay": "Resistance development, 30 serial passages at sub-MIC", "format": "cell-based", "conditions": "after 30 days / 30 serial passages", "experimental": "(§1) Sub-inhibitory concentrations of RP557, gentamicin and clindamycin were incubated with P. aeruginosa 27853 and S. aureus 29213 for 24 hours. Bacteria showing growth in the highest concentration were re-passaged in fresh dilutions containing sub-minimum inhibitory concentration (MIC) levels of each component for 30 consecutive passages.\nas §1, with “FIG. 4A to 4B. […] Sub-inhibitory” for “Sub-inhibitory”, “passages; means are shown.” for “passages.”"}, "[2]": {"test_system": "P. aeruginosa 27853", "assay": "Resistance development, 30 serial passages at sub-MIC", "format": "cell-based", "conditions": "after 30 days / 30 serial passages", "experimental": "as §1\nas §1, with “FIG. 4A to 4B. […] Sub-inhibitory” for “Sub-inhibitory”, “passages; means are shown.” for “passages.”"}, "[3]": {"test_system": "C. albicans (ATCC 44858)", "assay": "Rodent model of vulvovaginal candidiasis", "format": "in vivo", "conditions": "rat, oral fluconazole", "experimental": "FIG. 8A to 8B indicates topical treatment of exemplary peptide RP557 reduces rodent vaginal candidiasis. Effects of RP557, miconazole and oral fluconazole in a C. albicans vaginal infection rodent model. On Day 0, rats were inoculated intravaginally with C. albicans. RP557 and miconazole were administered twice daily (FIG. 8A). A separate group received oral fluconazole (FIG. 8B). Further details are provided in the experimental section.\nRP557 was effective in eradicating C. albicans in a rodent model of vulvovaginal candidiasis (FIG. 8A-8B).\nFIG. 8A to 8B. RP557 topical treatment reduces rodent vaginal candidiasis. Effects of RP557, miconazole and oral fluconazole in the C. albicans (ATCC 44858) vaginal infection rodent model. On Day 0, rats were inoculated intravaginally (IVG) with C. albicans at 1.46×10^7 CFU/rat. RP557 and miconazole at 20 mg/mL were administered IVG at 0.1 mL/rat twice daily at 8 hr intervals starting from 48 hr after infection for 3 days. CPUs were evaluated on Day 5 with limit of detection (LOD) 0.7 CFU/rat. Significant difference, compared to vehicle, determined by one-way ANOVA followed by Dunnett's test (*p<0.05, ****p<0.0001). A separate group receiving oral fluconazole; *p<0.05 versus 0.1 and 10 mg/kg fluconazole."}}, "data": [{"molecule": "CCC[C@@H]1C[C@@H](C(=O)N[C@@H]([C@H]2O[C@H](SC)[C@H](O)[C@@H](O)[C@H]2O)[C@H](C)Cl)N(C)C1", "note": "[clindamycin]", "values": [{"measurement": "growth at multiple of the MIC after 30 days", "setting": "[1]", "result": "256 times the minimum inhibitory concentration (MIC)"}]}, {"molecule": "gentamicin", "values": [{"measurement": "growth at multiple of the MIC after 30 days", "setting": "[2]", "result": "4096 times the minimum inhibitory concentration (MIC)"}]}, {"molecule": "OC(Cn1cncn1)(Cn1cncn1)c1ccc(F)cc1F", "note": "[fluconazole]", "values": [{"measurement": "activity on fungal counts", "setting": "[3]", "result": "minimal activity"}]}]}
